# Columns and labels:
# [1] = test system: Oryza sativa long grain rice variety LaKast; assay: Example 2 carbon dioxide in air bubbled into root zone of paddy rice: root weights and rough rice yield at harvest; assay type: in vivo; details: for % Difference (root weight vs Air) / Dry Root Weight: at harvest; for Dry Root Weight: average of two containers; for Rough Rice Yield Weight: dry weight at harvest
# Procedure: (§1) Example 2 tests were conducted to test whether carbon dioxide alone delivered to the roots of rice plants improves the rough rice yield and the root growth. For this example Oryza sativa long grain rice variety LaKast™ seed treated with CruiserMaxx® (an insecticide and fungicide) was carefully selected as representative of all rice grown commercially and provides an excellent model for testing commercial rice.
# (§2) For the Example 2 tests, carbon dioxide diluted with air in selected amounts was bubbled into the root zone of paddy rice. The rice was planted in 18.9 L (5 gallon) containers which are 30.5 cm (12 inches) in diameter and 35.6 cm (14 inches) deep, and sets of 8 containers all received the same gas mixture. The tests were designed to end after 17 weeks, but some containers were removed earlier to visually check the roots for amount of growth.
# (§3) For the Example 2 tests, the following gas mixtures were used: Air • 0.2% carbon dioxide in air • 0.5% carbon dioxide in air • 1.0% carbon dioxide in air • 2.0% carbon dioxide in air • 5.0% carbon dioxide in air • Note: 0.2% is approximately 5 times the amount of carbon dioxide currently found naturally in air
# (§4) 18.9 L (5 gallon) containers were prepared by placing an aquatic gas diffuser attached to tubing at the bottom of each container and then filling the container 10.2 cm (4 inches) from the top with sieved top soil. The containers were placed on tables in a greenhouse in groups of eight so that all received approximately the same amount of light. Each group of eight containers was attached to a tank of gas with the gas being supplied through a regulator to a flow meter and then to a set of eight valves with each one controlling the gas mixture to a single container. A total of forty-eight containers were prepared, and twenty-four containers were placed on each table. Starter phosphorus was added to the soil by mixing 1.7 g of triple super phosphate into the top 7.6 cm (3 inches) of soil in each container. Soil was also given addition starter fertilizer by dissolving 150 g of urea (for nitrogen), 132 g of potassium chloride (for potassium), and 1236 g of Epsom salts (magnesium sulfate heptahydrate for magnesium) in 12 liters of water. Each container was then given 200 mL of this solution. Later, zinc was added using zinc sulfate. The containers were flooded to 1.3 cm (0.5 inches) above the surface of the soil using collected rainwater. On May 20, 2016, the rice seed was presoaked for 24 hours and then drained for 24 hours was dropped on the surface of the soil in each container. After the rice was established, the plants were thinned to 10 plants per container. At a later date, the plants were thinned again to six plants per container. The gas mixtures to the containers were started on May 20, 2016 and adjusted to an initial flow meter setting of 42.5 liters/hr. (1.5 ft^3/hr.) with a steady flow of bubbles in each container. The flow rate was turned down to 14.2 liters/hr. (0.5 ft^3/hr.) on Jun. 14, 2016. The gas flow was supplied each weekday from 8:00 am to noon. During the testing, fans in the greenhouse created a constant airflow to prevent carbon dioxide concentration around a particular group of plants.
# On Jun. 20, 2016, the rice plants of Example 2 were thinned to six plants per container. On Aug. 1, 2016, additional nitrogen and triple super phosphate (TSP) was added to each container at the rate of 0.57 g TSP in all containers, 0.87 g of urea per container being fed normal air, and 2.27 g ammonium bicarbonate (equivalent nitrogen content as 0.87 g of urea) for the rest of the containers. This introduction of nitrogen and phosphates was to ensure no limitation in nitrogen and phosphorus for the plants and therefore ensure the testing validity of introducing carbon dioxide as a gas to the roots of the plants.
# The rough rice for the Example 2 tests was harvested on Sep. 19, 2016. The rough rice was separated, and dried for seven days at 40° C. […]
# [2] = test system: Oryza sativa long grain rice variety LaKast; assay: Example 2 carbon dioxide in air bubbled into root zone of paddy rice: roots and foliage at 24 days; assay type: in vivo; details: for Dry Foliage Weight: total of ten plants; for Dry Root Weight: total of ten plants of one container; for % Difference in Total Nitrogen Uptake: vs air
# Procedure: as §1, §2, §3, §4
# On May 25, 2016, 10.6 g of zinc sulfate was dissolved in 10 L of water and each container was given 200 mL of this solution. As the plants grew, the flood waters were gradually raised until they reached a depth of three inches above the soil surface. A flood water depth of 5.1 to 7.6 cm (2 to 3 inches) was maintained for the remainder of the test. On Jun. 13, 2016, one front container (containing 10 plants each) for each level of carbon dioxide was withdrawn for measurement and the plants were gently removed and thoroughly cleaned. The plants and roots were then dried in an oven overnight at 80° C. The next day, the roots were trimmed and weighed. Table 6 presents the total root weights and total foliage weights of the ten plants for each container of plants. […]
smiles,measurement,setting,value
"O=C=O [CO2, carbon dioxide]",% Difference (rough rice yield vs Air),[1]; 0.2% CO2 in air,2.9%
same,% Difference (root weight vs Air),[1]; 0.2% CO2 in air,+35.8%
same,Dry Root Weight,[1]; 0.2% CO2 in air,62.5 g
same,Rough Rice Yield Weight,[1]; 0.2% CO2 in air,91.5 g
same,% Difference (rough rice yield vs Air),[1]; 0.5% CO2 in air,6.1%
same,% Difference (root weight vs Air),[1]; 0.5% CO2 in air,+6.4%
same,Dry Root Weight,[1]; 0.5% CO2 in air,49.0 g
same,Rough Rice Yield Weight,[1]; 0.5% CO2 in air,94.3 g
same,% Difference (rough rice yield vs Air),[1]; 1.0% CO2 in air,11.9%
same,% Difference (root weight vs Air),[1]; 1.0% CO2 in air,+9.6%
same,Dry Root Weight,[1]; 1.0% CO2 in air,50.4 g
same,Rough Rice Yield Weight,[1]; 1.0% CO2 in air,99.5 g
same,% Difference (rough rice yield vs Air),[1]; 2.0% CO2 in air,11.9%
same,% Difference (root weight vs Air),[1]; 2.0% CO2 in air,+11.1%
same,Dry Root Weight,[1]; 2.0% CO2 in air,51.1 g
same,Rough Rice Yield Weight,[1]; 2.0% CO2 in air,99.5 g
same,% Difference (rough rice yield vs Air),[1]; 5.0% CO2 in air,−3.0%
same,% Difference (root weight vs Air),[1]; 5.0% CO2 in air,+20.7%
same,Dry Root Weight,[1]; 5.0% CO2 in air,55.5 g
same,Rough Rice Yield Weight,[1]; 5.0% CO2 in air,86.2 g
same,average root weights at harvest compared with plants receiving just air,"[1]; all containers receiving elevated carbon dioxide at roots, in words",higher
same,grain yields compared with plants receiving just air,"[1]; elevated carbon dioxide, with the exception of 5.0% carbon dioxide mixed with air, in words",higher
same,% Difference of Root Weight as Compared to Air,[2]; 0.5% CO2 in air,0%
same,Total Nitrogen Uptake by Foliage,[2]; 0.5% CO2 in air,0.156 g
same,Dry Foliage Weight,[2]; 0.5% CO2 in air,3.48 g
same,Dry Root Weight,[2]; 0.5% CO2 in air,1.26 g
same,% Difference in Total Nitrogen Uptake,[2]; 0.5% CO2 in air,8.33%
same,Total Nitrogen Uptake by Foliage,[2]; 2.0% CO2 in air,0.151 g
same,Dry Foliage Weight,[2]; 2.0% CO2 in air,3.43 g
same,Dry Root Weight,[2]; 2.0% CO2 in air,2.08 g
same,% Difference in Total Nitrogen Uptake,[2]; 2.0% CO2 in air,4.86%
same,weight of the foliage compared with container receiving solely air,"[2]; each container receiving elevated carbon dioxide, in words",slightly more
